Reference: ChEMBL document CHEMBL4251585, “Accelerated skin wound healing by selective 11β-Hydroxylase (CYP11B1) inhibitors” (Eur J Med Chem, 2018)

Tests used:
CYP17A1 = molecular target: T1, CYP17A1 (Homo sapiens, UniProt P05093); assay: Inhibition of human CYP17A1 expressed in Escherichia coli XL1 at 2 uM using [3H]-progesterone as substrate preincubated with substrate for 5 mins measured after 45 mins by HPLC analysis; type: ADME; details: human CYP17A1 expressed in Escherichia coli XL1, probe [3H]-progesterone
T1 sequence (P05093 whole entry): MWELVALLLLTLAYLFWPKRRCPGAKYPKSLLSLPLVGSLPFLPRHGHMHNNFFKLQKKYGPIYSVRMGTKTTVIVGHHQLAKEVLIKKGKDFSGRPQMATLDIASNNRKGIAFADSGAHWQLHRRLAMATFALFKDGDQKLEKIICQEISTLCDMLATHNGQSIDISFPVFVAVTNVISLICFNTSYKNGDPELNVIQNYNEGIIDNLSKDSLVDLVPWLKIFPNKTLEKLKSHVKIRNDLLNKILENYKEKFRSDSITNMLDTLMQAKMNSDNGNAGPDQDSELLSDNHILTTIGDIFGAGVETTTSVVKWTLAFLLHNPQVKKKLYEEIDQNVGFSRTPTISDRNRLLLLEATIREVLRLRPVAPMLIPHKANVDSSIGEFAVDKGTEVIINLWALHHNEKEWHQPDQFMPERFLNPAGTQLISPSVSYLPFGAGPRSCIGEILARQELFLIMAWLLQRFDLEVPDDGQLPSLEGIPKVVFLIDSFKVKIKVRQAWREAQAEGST

[1] = Half life in human liver S9 fraction at 1 uM up to 60 mins in presence of NADPH/UDPGA by LC-MS/MS analysis; type: ADME, subcellular
Salmonella typhimurium [2] = assay: Mutagenicity in Salmonella typhimurium TA98 up to 100 uM in absence of rat liver S9 fraction by Ames 2 assay; type: toxicity, organism-based; details: salmonella enterica subsp. enterica serovar typhimurium
[3] = Half life in human plasma at 1 uM up to 150 mins by LC-MS/MS analysis; type: ADME, cell-free
Zone of skin [4] = assay: Induction of wound healing in human skin explant assessed as re-epithelialization at 5 uM administered topically for 3 days measured on day 2 post administration by hematoxylin-eosin-saffron staining based microscopic analysis (reference value: 28 +/- 2%); type: functional
Salmonella typhimurium [5] = assay: Mutagenicity in Salmonella typhimurium TA7001/7002/7003/7004/7005/7006 up to 100 uM in absence of rat liver S9 fraction by Ames 2 assay; type: toxicity, organism-based; details: salmonella enterica subsp. enterica serovar typhimurium
[6] = molecular target: T2, Cytochrome P450 11B1, mitochondrial (Homo sapiens, UniProt P15538); assay: Inhibition of human CYP11B1 expressed in hamster V79MZ cells using [1,2-3H]-11-deoxycorticosterone as substrate after 6 hrs by HPTLC analysis; type: cell-based
T2 sequence (P15538 whole entry): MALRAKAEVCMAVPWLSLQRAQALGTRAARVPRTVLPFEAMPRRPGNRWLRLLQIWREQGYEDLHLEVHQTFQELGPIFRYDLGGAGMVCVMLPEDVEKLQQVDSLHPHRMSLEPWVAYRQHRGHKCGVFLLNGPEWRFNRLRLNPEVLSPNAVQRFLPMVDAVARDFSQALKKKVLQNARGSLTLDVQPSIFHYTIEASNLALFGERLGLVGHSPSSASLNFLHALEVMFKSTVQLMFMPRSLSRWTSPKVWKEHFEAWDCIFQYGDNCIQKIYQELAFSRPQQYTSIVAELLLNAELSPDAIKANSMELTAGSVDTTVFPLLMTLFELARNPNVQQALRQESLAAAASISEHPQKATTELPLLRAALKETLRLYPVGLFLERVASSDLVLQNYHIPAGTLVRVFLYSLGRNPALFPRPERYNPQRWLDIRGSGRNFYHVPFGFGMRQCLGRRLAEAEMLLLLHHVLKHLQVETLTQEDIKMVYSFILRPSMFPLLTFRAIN

[7] = Cytotoxicity against human epidermal keratinocytes assessed as cell viability at 11 uM after 72 hrs by MTT assay relative to control; parameters: species or system Keratinocyte; details: read-out: Activity
[8] = molecular target: T3, 11-beta-hydroxysteroid dehydrogenase type 2 (Homo sapiens, UniProt P80365); assay: Inhibition of human 11beta-HSD2 expressed in HEK293 cell lysates at 200 uM using [1,2,6,7-3H]-cortisol as substrate preincubated for 10 mins followed by substrate addition in presence of NAD by scintillation counting relative to control; parameters: species or system Lysate
T3 sequence (P80365 whole entry): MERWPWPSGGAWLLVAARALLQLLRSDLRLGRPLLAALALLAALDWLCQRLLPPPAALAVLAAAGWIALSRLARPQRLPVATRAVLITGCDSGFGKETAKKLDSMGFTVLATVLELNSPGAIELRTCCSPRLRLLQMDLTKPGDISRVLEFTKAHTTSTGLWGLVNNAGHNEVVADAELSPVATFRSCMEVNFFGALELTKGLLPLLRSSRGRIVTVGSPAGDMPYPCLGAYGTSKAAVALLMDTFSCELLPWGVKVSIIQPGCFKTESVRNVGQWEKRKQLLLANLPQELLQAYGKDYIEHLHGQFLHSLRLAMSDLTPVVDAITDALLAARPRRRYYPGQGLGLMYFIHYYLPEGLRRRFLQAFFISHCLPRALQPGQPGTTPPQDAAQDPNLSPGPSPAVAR

Zone of skin [9] = assay: Induction of wound healing in human skin explant assessed as re-epithelialization at 5 uM administered topically for 3 days measured on day 1 post administration by hematoxylin-eosin-saffron staining based microscopic analysis (reference value: 13 +/- 7%); type: functional
Salmonella typhimurium [10] = assay: Mutagenicity in Salmonella typhimurium TA98 up to 100 uM in presence of rat liver S9 fraction by Ames 2 assay; type: toxicity, organism-based; details: salmonella enterica subsp. enterica serovar typhimurium
CYP19A1 (aromatase) = molecular target: T4, CYP19A1 (aromatase) (Homo sapiens, UniProt P11511); assay: Inhibition of human placental microsomal CYP19A1 at 2 uM using [1beta-3H]androstenedione after 21 mins by liquid scintillation spectrometry; type: ADME; details: placental microsomes, probe [1beta-3H]androstenedione
T4 sequence (P11511 whole entry): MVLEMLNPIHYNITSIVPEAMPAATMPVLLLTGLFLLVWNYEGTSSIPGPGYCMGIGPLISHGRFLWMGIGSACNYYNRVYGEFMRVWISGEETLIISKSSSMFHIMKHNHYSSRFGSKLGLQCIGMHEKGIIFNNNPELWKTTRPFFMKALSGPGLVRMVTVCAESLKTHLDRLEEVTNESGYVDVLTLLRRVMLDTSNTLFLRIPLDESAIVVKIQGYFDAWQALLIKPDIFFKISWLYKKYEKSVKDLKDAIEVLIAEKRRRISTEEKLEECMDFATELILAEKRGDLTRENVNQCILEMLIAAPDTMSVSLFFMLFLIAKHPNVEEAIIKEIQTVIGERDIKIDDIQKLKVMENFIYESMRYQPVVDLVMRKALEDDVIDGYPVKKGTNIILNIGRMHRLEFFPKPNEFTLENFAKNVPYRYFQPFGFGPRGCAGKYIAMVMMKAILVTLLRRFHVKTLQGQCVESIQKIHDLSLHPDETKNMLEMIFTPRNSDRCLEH

[11] = molecular target: T5, 11-beta-hydroxysteroid dehydrogenase 1 (Homo sapiens, UniProt P28845); assay: Inhibition of human 11beta-HSD1 expressed in HEK293 cell lysates at 200 uM using [1,2-3H]-cortisone as substrate preincubated for 10 mins followed by substrate addition in presence of NADPH by scintillation counting relative to control
Target sequence in this assay (P28845 whole entry, looked up): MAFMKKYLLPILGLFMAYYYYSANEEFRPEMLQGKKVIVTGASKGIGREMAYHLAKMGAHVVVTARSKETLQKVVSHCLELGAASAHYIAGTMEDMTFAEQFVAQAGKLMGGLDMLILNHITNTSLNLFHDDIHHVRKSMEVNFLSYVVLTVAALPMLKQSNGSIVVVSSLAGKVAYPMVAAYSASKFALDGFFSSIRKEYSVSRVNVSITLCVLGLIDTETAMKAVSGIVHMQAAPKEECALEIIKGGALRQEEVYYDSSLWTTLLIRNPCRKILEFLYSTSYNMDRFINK

Salmonella typhimurium [12] = assay: Mutagenicity in Salmonella typhimurium TA7001/7002/7003/7004/7005/7006 up to 100 uM in presence of rat liver S9 fraction by Ames 2 assay; type: toxicity, organism-based; details: salmonella enterica subsp. enterica serovar typhimurium
Zone of skin [13] = assay: Induction of wound healing in human skin explant assessed as re-epithelialization at 5 uM administered topically for 3 days measured on day 3 post administration by hematoxylin-eosin-saffron staining based microscopic analysis relative to control; type: functional
[14] = molecular target: T5, 11-beta-hydroxysteroid dehydrogenase 1; assay: Inhibition of human 11beta-HSD1 expressed in HEK293 cell lysates at 50 uM using [1,2-3H]-cortisone as substrate preincubated for 10 mins followed by substrate addition in presence of NADPH by scintillation counting relative to control
Target sequence in this assay (P28845 whole entry, looked up): as above

[15] = molecular target: T5, 11-beta-hydroxysteroid dehydrogenase 1; assay: Inhibition of human 11beta-HSD1 expressed in HEK293 cell lysate using [1,2-3H]-cortisone as substrate preincubated for 10 mins followed by substrate addition in presence of NADPH by scintillation counting
Target sequence in this assay (P28845 whole entry): as the sequence (P28845 whole entry, looked up) above

[16] = molecular target: T3, 11-beta-hydroxysteroid dehydrogenase type 2; assay: Inhibition of human 11beta-HSD2 expressed in HEK293 cell lysates at 10 uM using [1,2,6,7-3H]-cortisol as substrate preincubated for 10 mins followed by substrate addition in presence of NAD by scintillation counting relative to control; parameters: species or system Lysate

For COc1cncc(Cc2ccc(-c3ccccc3F)nc2)c1, the inhibition at 0.75 h, 2 µM (CYP17A1) was 5%, the half-life at 1 µM [1] was 19 min and the Activity (Salmonella typhimurium [2]) was “Non-Toxic”. For the same compound, the half-life at 1 µM [3] was over 150 min, the Activity (Zone of skin [4]) was 89% and the Activity (Salmonella typhimurium [5]) was “Non-Toxic”. The IC50 [6] was 0.8 nM, the viability at 72 h, 11 µM [7] was 87% and the “inhibition (INH)” value [8] was “Not Active”. The Activity (Zone of skin [9]) was 10%, the Activity (Salmonella typhimurium [10]) was “Non-Toxic” and the inhibition at 0.35 h, 2 µM (CYP19A1 (aromatase)) was 2%. The inhibition [11] was 48%, the Activity (Salmonella typhimurium [12]) was “Non-Toxic” and the Activity (Zone of skin [13]) was 98%.

In the case of Oc1cncc(Cc2cc(-c3ccccc3)no2)c1, the IC50 [6] is reported as 120 nM.

Oc1cncc(Cc2cnc(-c3ccccc3)s2)c1 showed an IC50 [6] of 77 nM.

For CC(C)(C(=O)c1cccnc1)c1cccnc1 [METYRAPONE], the half-life at 1 µM [1] was 49 min, the “inhibition (INH)” value [8] was “Not Active” and the inhibition [14] was 54%. For the same compound, the inhibition at 0.35 h, 2 µM (CYP19A1 (aromatase)) was 0% and the inhibition [11] was 70%.

Work on Cn1nc(-c2ccccc2)cc1Cc1cncc(O)c1 yielded an IC50 [15] of 1620 nM, an inhibition at 0.75 h, 2 µM (CYP17A1) of 10% and a half-life at 1 µM [1] of 33 min. For the same compound, the IC50 [6] was 17 nM, the “inhibition (INH)” value [16] was “Not Active” and the inhibition at 0.35 h, 2 µM (CYP19A1 (aromatase)) was 0%.

Work on Oc1cncc(Cc2ccc(-c3ccccc3F)nc2)c1 yielded a half-life at 1 µM [1] of 21 min, an IC50 [6] of 29 nM and an inhibition at 0.35 h, 2 µM (CYP19A1 (aromatase)) of 1%.
